The record followed here is US20260234188A1, “CHEMOKINE-BINDING PEPTIDES” (Oxford University Innovation Limited, priority 2022, published 2026).

For assay [1], the system named is panel of 24 biotinylated chemokines. Nature of the assay: Phage-display screen of HD2 NNK saturation mutagenesis library. It is filed as binding, human. The conditions noted are these: for Chemokines Bound log2E 1-5 / Chemokines Bound log2E > 5: HD2 saturation mutants, chemokines on streptavidin beads, UniProt entry names.
In another assay the target is T1, CXCL11 (Homo sapiens, UniProt O14625).
T1 construct: purchased Peprotech
T1 sequence (O14625 22-94): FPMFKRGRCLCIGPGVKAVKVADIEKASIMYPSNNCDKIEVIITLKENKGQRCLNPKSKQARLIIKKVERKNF
In words: CXCL11-induced activated T-cell migration, transwell assay. It is filed as cell-based. The conditions noted are these: HD2 mutant peptides 10 μM, chemokine at EC80. As for the experimental part: FIG. 2. […] BK1.2 is described in (Darlot, 2020). […] Chemokines used are indicated by the name, followed in parenthesis by the supplier code (P in supplier code indicates Peprotech). […] All experiments were performed at EC80 doses of indicated chemokine. Data are shown as box-whisker plots of three technical and three biological replicates. Statistically significant differences (compared to control, indicated by #), using Dunnett's test with correction for multiple comparisons, are indicated by asterisks: ****=P≤0.0001, ***=P≤0.001, **=P≤0.01, *=P≤0.05.
Briefly, cell migration assays use THP1 cells (human monocyte) and primary human buffy coat white cells (consisting of neutrophil granulocytes, monocytes, and lymphocytes), and activated T-cells. THP1 cells and primary monocytes respond to CCL2, CCL3, CCL5, CCL8 and CXCL4, granulocytes to CXCL1 and CXCL8, activated T-cells to CXCL9/10/11. Assays are performed in 96-well Boyden chambers, and migrated cells counted and characterized using and ATTUNE Flow Cytometer as described. Triplicate assays are performed at the EC80 dose of each chemokine at 10 μM peptide concentration.
The J:CXCR1 cell line was generated by transfecting Jurkat cells by electroporation with PvuI-linearized plasmid D1398 and selecting with blasticidin (Sigma-Aldrich, Cat #203350, […]). […] J:CXCR1 cells were cultured in RPMI-1640 media (Gibco), supplemented with 10% FBS and 5 mM L-Glutamine with blasticidin. For J:CXCR1 migration assays, 300,000 cells/well were added to the top chamber of a 3 μm Transwell insert (Corning) in 50 μL of migration media (RPMI-1640, 0.5% FBS, 4 mM L-Glutamine, 0.05% DMSO). The bottom chamber contained 150 μL of chemokine, with or without peptide. Cells were migrated at 37° C. in 5% CO2 for 4 hours. The plate was incubated on a shaking platform for 10 minutes, 800 rpm, at 37° C., and 150 μL from the bottom of the plate transferred into a U-bottom plate containing 50 μL of migration media. Cell counts were determined by Attune NxT Flow Cytometer Plate Reader (ThermoFisher), based on cell size parameters FSC-H/SSC-H. Experiments were performed in 3 technical and 3 biological replicates. THP-1 migration assays were carried out using methods known in the art. Activated T-cell assays were carried out using methods known in the art, with the following modifications in the isolation process. Peripheral blood cells were obtained from leucocyte cones (NHS Blood Transfusion Services), following which, T-cells were isolated using two rounds of human CD8+ T-cell isolation kit (480011, BioLegend). At day 10 after activation, T-cells were frozen at 20 E6 cells/ml in TexMACS medium supplemented with 10% DMSO (D2650, Sigma) in liquid nitrogen. Prior to use, activated T-cells were recovered for 24 hours in TexMACs medium at 0.3 E6 cells/ml and incubated at 37° C. in 5% CO2. Chemokine sources are described in Supplementary information Table 3. Statistical significances between control experimental groups was evaluated using Dunnett's test. IC50 experiments were performed at the EC80 dose of chemokine. EC80 was calculated by fitting a chemokine dose-response curve with 3 parameters (fixing the top to 100%). IC50 was calculated by fitting an inhibitor response curve with 4 parameters.

“Also recorded” adds a separate entry of the source. Ends that are not written are not given here. Peptide text beside a SMILES is read from it.

With “EEDDWTAYAPLTCYFT-NH2 [HD2_W5, EEDDWTAYAPLTCYFT]”, in assay [1], the “Chemokines Bound log2E 1-5” value was “CCL1, CCL11, CCL15, CCL17,; also recorded: CCL18, CCL19, CCL2, CCL22,; also recorded: CCL28, CCL3, CCL4, X3CL1,; also recorded: CXL11, SDF1, IL8” and the “Chemokines Bound log2E > 5” value is on record as “CXL10, CXL13”. The “mean log 2 E compared to parental HD2” value in assay [1] (over XC (CXC/CX3C) chemokines) is recorded as “significant improvement”. Moreover, in assay [1] (over all chemokines), the “mean log 2 E compared to parental HD2” value was “significant improvement”. Also, the “chemotaxis compared with the parental HD2 peptide” value at CXCL11 was “significant reduction in chemotaxis”.
On to `CC(C)C[C@H](NC(=O)[C@@H]1CCCN1C(=O)[C@H](C)NC(=O)[C@H](Cc1ccc(O)cc1)NC(=O)[C@H](C)NC(=O)[C@@H](NC(=O)[C@H](Cc1ccc(O)cc1)NC(=O)[C@H](CC(=O)O)NC(=O)[C@H](CC(=O)O)NC(=O)[C@H](CCC(=O)O)NC(=O)[C@@H](N)CCC(=O)O)[C@@H](C)O)C(=O)N[C@H](C(=O)N[C@@H](CS)C(=O)N[C@@H](Cc1ccc(O)cc1)C(=O)N[C@@H](Cc1ccccc1)C(=O)N[C@@H](CS)C(N)=O)[C@@H](C)O` [HD2_C16, EEDDYTAYAPLTCYFC] (H-EEDDYTAYAPLTCYFC-NH2; N-terminus assumed), for which, in assay [1], the “Chemokines Bound log2E 1-5” value is reported as “CCL1, X3CL1, CXL10, CXL11,; also recorded: CXL14” and the “Chemokines Bound log2E > 5” value is given as “IL8”. Also, the “peak log 2 E” value in assay [1] (best mutation at each residue) is recorded as “highest peak log 2 E at that residue”. Besides, the “chemotaxis compared with the parental HD2 peptide” value at CXCL11 is given as “significant reduction in chemotaxis”.
EEDDYWAYAPLTCYFT [HD2_W6]: in assay [1], the “Chemokines Bound log2E 1-5” value is on record as “CCL1, CCL17, CCL18, CCL2,; also recorded: CCL20, CCL3, CCL4, IL8” and the “Chemokines Bound log2E > 5” value was “CCL19, CCL25,; also recorded: CCL28, X3CL1,; also recorded: CXL10, CXL11,; also recorded: SDF1, CXL13,; also recorded: CXL14”. Also, the “mean log 2 E compared to parental HD2” value in assay [1] (over XC (CXC/CX3C) chemokines) is “significant improvement”. At CXCL11, the “chemotaxis compared with the parental HD2 peptide” value is listed as “significant reduction in chemotaxis”.
In the case of EEDDYTAYWPLTCYFT [A9W], the “chemotaxis compared with the parental HD2 peptide” value with CXCL11 was “significant reduction in chemotaxis”.
